From patent US6479515B1, “Heterocyclic benzenesulphonamide compounds as bradykinine antagonists” (Fournier Industrie et Sante, priority 1999, dated 2002)
Where a name gives a salt, the structure may show the parent alone. Read-outs that look alike come from different tables or passages of the source.

Key:
human B2 receptor = biological target: T1, human B2 receptor (Homo sapiens, UniProt P30411); assay: competitive binding test on CHO cell membranes expressing the human B2 receptor using [3H]-bradykinin as ligand
T1 construct: expressed in transfected cells; host or cells: CHO cells (membranes)
T1 sequence (P30411 1-391): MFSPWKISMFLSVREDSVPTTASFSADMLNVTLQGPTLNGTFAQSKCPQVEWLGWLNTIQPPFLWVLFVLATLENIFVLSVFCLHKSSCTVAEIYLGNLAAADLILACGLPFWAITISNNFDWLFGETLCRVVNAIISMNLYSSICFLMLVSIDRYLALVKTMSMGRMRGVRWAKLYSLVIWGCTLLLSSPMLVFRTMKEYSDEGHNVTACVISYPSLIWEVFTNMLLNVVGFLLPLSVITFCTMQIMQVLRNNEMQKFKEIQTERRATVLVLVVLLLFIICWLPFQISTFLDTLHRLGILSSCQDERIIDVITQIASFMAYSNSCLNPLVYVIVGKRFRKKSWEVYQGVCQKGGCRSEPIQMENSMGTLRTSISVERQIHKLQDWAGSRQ
Method: The activity of the products according to the invention was evaluated, according to a first aspect, as a function of their aptitude to bind to the bradykinin B2 receptors. […] It is likewise known that bradykinin is amongst one of the most powerful algesic agents known. The mode of action of kinins and more particularly of bradykinin makes a coupling of the peptides to the two types of receptors called B1 and B2 respectively take place. The B2 receptor belongs to the large family of receptors with seven transmembrane domains coupled to the G proteins and seems to be more particularly involved in the field of the pathologies mentioned above. This is the reason why the products of the invention, which have the property of being able to bind to the B2 receptor, inhibit the binding of bradykinin and, consequently, suppress its harmful activity. The test employed in order to measure this property is a competitive binding test on CHO cell membranes expressing the human B2 receptor using bradykinin labelled with tritium ([^3H]-bradykinin) as ligand.
The results are expressed by the Ki value, as calculated according to the recommended method with the description of the test employed and described according to D. Pruneau et al., in Br. J. Pharmacol. 1998, 125 p 365-372.

bradykinin B2 receptor = biological target: T2, bradykinin B2 receptor (Homo sapiens, UniProt P30411); assay: inhibition of the contraction of the isolated human umbilical vein in the presence of bradykinin; assay type: cell-based
T2 construct: from tissue; host or cells: isolated human umbilical vein
T2 sequence (P30411 1-391): T1 sequence (P30411 1-391)
Text: This antagonist character is expressed by the value pA2, calculated according to a biological test employed in order to measure the inhibition of the contraction of the isolated human umbilical vein by the compounds according to the invention in the presence of bradykinin. The test procedure and the method of calculation of pA2 are described in the articles of D. Pruneau et al. published in Br. J. Pharmacol. 1998, 125, p 365-372 and J L. Paquet et al. Br. J. Pharmacol. 1999, 126 (in print).

[1] = isolated human umbilical vein, contraction in the presence of bradykinin
[2] = isolated human umbilical vein, contraction in the presence of bradykinin, read-out: pA2 (converted)

Kb (bradykinin B2 receptor; [2]) [nM]	Compound	Ki (human B2 receptor) [nM]	pA2 (bradykinin B2 receptor; [1])	Kb (bradykinin B2 receptor) [nM]
	1-[[2,4-Dichloro-3-[[2(L)-[[4-(2-pyridinyl)-1-piperazinyl]carbonyl]-1-pyrrolidinyl]sulphonyl]-N-methyl-N-[3-[[3-(hydroxy)propyl]-(methyl)amino]propyl]-2(S)-pyrrolidinecarboxamide, methanesulphonate [Example 105]	7.7	8.3	
	1-[[2,4-Dichloro-3-[[[4-(1H-imidazol-1-yl)-2-methyl-8-quinolinyl]oxy]methyl]-phenyl]sulphonyl]-N-[2-(4-morpholinyl)ethyl]-2(S)-pyrrolidinecarboxamide, hemisulphate [Example 48]	32	8.5	
	1-[[2,4-Dichloro-3-[[[4-(1H-imidazol-1-yl)-2-methyl-8-quinolinyl]oxy]methyl]-phenyl]sulphonyl]-N-[3-(4-morpholinyl)propyl]-2(S)-pyrrolidinecarboxamide, hemisulphate [Example 50]	30	8.3	
	1-[[2,4-Dichloro-3-[[[4-(1H-imidazol-1-yl)-2-methyl-8-quinolinyl]oxy]methyl]-phenyl]sulphonyl]-N-[3-(dimethylamino)propyl]-N-methyl-2(S)-pyrrolidine-carboxamide, hemisulphate [Example 61]	21	8.1	
0.501	Cc1cc(-n2ccnc2)c2cccc(OCc3c(Cl)ccc(S(=O)(=O)N4CCC[C@H]4C(=O)NCC4CCN(CCO)CC4)c3Cl)c2n1 [64 A]	0.034		
0.1	Cc1cc(-n2ccnc2)c2cccc(OCc3c(Cl)ccc(S(=O)(=O)N4CCC[C@H]4C(=O)NCCCNC(=O)c4ccc(C(=N)N)cc4)c3Cl)c2n1 [Example 4, N-[3-[[4-(Aminoiminomethyl)benzoyl]amino]propyl]-1-[[2,4-dichloro-3-[[[4-(1H-imidazol-1-yl)-2-methyl-8-quinolinyl]oxy]methyl]phenyl]sulphonyl]-2(S)-pyrrolidinecarboxamide, bis methanesulphonate]	0.24		
	Cc1cc(-n2ccnc2)c2cccc(OCc3c(Cl)ccc(S(=O)(=O)N4CCC[C@H]4C(=O)NCC4CCNCC4)c3Cl)c2n1 [Example 10, 1-[[2,4-Dichloro-3-[[[4-(1H-imidazol-1-yl)-2-methyl-8-quinolinyl]oxy]methyl]-phenyl]sulphonyl]-N-(4-piperidinylmethyl)-2(S)-pyrrolidinecarboxamide, ditartrate]	1		3.16
	Cc1cc(-n2ccnc2)c2cccc(OCc3c(Cl)ccc(S(=O)(=O)N4CCC[C@H]4C(=O)NCC4CCN(CCOCCO)CC4)c3Cl)c2n1 [Example 12, 1-[[2,4-Dichloro-3-[[[4-(1H-imidazol-1-yl)-2-methyl-8-quinolinyl]oxy]methyl]-phenyl]sulphonyl]-N-[[1-[2-(2-hydroxyethoxy)ethyl]-4-piperidinyl]methyl]-2(S)-pyrrolidinecarboxamide, tartrate]	0.47		2
	Cc1cc(-n2ccnc2)c2cccc(OCc3c(Cl)ccc(S(=O)(=O)N4CCC[C@H]4C(=O)NCC4CCN(CCCO)CC4)c3Cl)c2n1 [Example 23, 1-[[2,4-Dichloro-3-[[[4-(1H-imidazol-1-yl)-2-methyl-8-quinolinyl]oxy]methyl]-phenyl]sulphonyl]-N-[[1-(3-hydroxypropyl)-4-piperidinyl]methyl]-2(S)-pyrrolidinecarboxamide, tartrate]	0.45		0.794
	Cc1cc(-n2cncn2)c2cccc(OCc3c(Cl)ccc(S(=O)(=O)N4CCC[C@H]4C(=O)NCC4CCN(CCCO)CC4)c3Cl)c2n1 [Example 30, 1-[[2,4-Dichloro-3-[[[2-methyl-4-(1H-1,2,4-triazol-1-yl)-8-quinolinyl]oxy]-methyl]phenyl]sulphonyl]-N-[[1-(3-hydroxypropyl)-4-piperidinyl]methyl]-2(S)-pyrrolidinecarboxamide, tartrate]	0.73		2
	Cc1cc(-n2ccnc2)c2cccc(OCc3c(Cl)ccc(S(=O)(=O)N4CCC[C@H]4C(=O)NCC4CCN(CCCCO)CC4)c3Cl)c2n1 [Example 32, 1-[[2,4-Dichloro-3-[[[4-(1H-imidazol-1-yl)-2-methyl-8-quinolinyl]oxy]methyl]-phenyl]sulphonyl]-N-[[1-(4-hydroxybutyl)-4-piperidinyl]methyl]-2(S)-pyrrolidinecarboxamide, tartrate]	1.4		0.794
5.01	Cc1cc(-n2ccnc2)c2cccc(OCc3c(Cl)ccc(S(=O)(=O)N4C[C@H](O)C[C@H]4C(=O)NCC4CCNCC4)c3Cl)c2n1 [Example 42, 1-[[2,4-Dichloro-3-[[[4-(1H-imidazol-1-yl)-2-methyl-8-quinolinyl]oxy]methyl]-phenyl]sulphonyl]-4(R)-hydroxy-N-(4-piperidinemethyl)-2(S)-pyrrolidine-carboxamide, ditartrate]	77		
	Cc1cc(-n2ccnc2)c2cccc(OCc3c(Cl)ccc(S(=O)(=O)N4CCC[C@H]4C(=O)N(C)CCN(C)C)c3Cl)c2n1 [Example 73, 1-[[2,4-Dichloro-3-[[[4-(1H-imidazol-1-yl)-2-methyl-8-quinolinyl]oxy]methyl]-phenyl]sulphonyl]-N-[2-(dimethylamino)ethyl]-N-methyl-2(S)-pyrrolidine-carboxamide, tartrate]	10		3.98
	Cc1cc(-n2ccnc2)c2cccc(OCc3c(Cl)ccc(S(=O)(=O)N4CCC[C@H]4C(=O)NCCN4CCCC4)c3Cl)c2n1 [Example 75, 1-[[2,4-Dichloro-3-[[[4-(1H-imidazol-1-yl)-2-methyl-8-quinolinyl]oxy]methyl]-phenyl]sulphonyl]-N-[2-(1-pyrrolidinyl)ethyl]-2(S)-pyrrolidinecarboxamide, tartrate]	2.8		5.01
	Cc1cc(-n2ccnc2)c2cccc(OCc3c(Cl)ccc(S(=O)(=O)N4CCC[C@H]4C(=O)NCCCN4CCCC4)c3Cl)c2n1 [Example 77, 1-[[2,4-Dichloro-3-[[[4-(1H-imidazol-1-yl)-2-methyl-8-quinolinyl]oxy]methyl]-phenyl]sulphonyl]-N-[3-(1-pyrrolidinyl)propyl]-2(S)-pyrrolidinecarboxamide, tartrate]	6.1		2.51
	Cc1cc(-n2cncn2)c2cccc(OCc3c(Cl)ccc(S(=O)(=O)N4CCC[C@H]4C(=O)NCCN(C)C)c3Cl)c2n1 [Example 83, 1-[[2,4-Dichloro-3-[[[2-methyl-4-(1H-1,2,4-triazol-1-yl)-8-quinolinyl]oxy]-methyl]phenyl]sulphonyl]-N-[2-(dimethylamino)ethyl]-2(S)-pyrrolidine-carboxamide, tartrate]	14		12.6
6.31	Cc1cc(-n2cncn2)c2cccc(OCc3c(Cl)ccc(S(=O)(=O)N4CCC[C@H]4C(=O)NCCCN4CCCC4)c3Cl)c2n1 [Example 87, 1-[[2,4-Dichloro-3-[[[2-methyl-4-(1H-1,2,4-triazol-1-yl)-8-quinolinyl]oxy]-methyl]phenyl]sulphonyl]-N-[3-(1-pyrrolidinyl)propyl]-2(S)-pyrrolidine-carboxamide, methanesulphonate]	15		
